Test results: patent US9695155B2, “Herbicidal substituted pyrimidinyloxy benzene compounds” (E. I. DU PONT DE NEMOURS AND COMPANY, priority 2013, dated 2017)

Columns and labels:
chickweed = test: Test C postemergence; assay type: in vivo, Stellaria media; conditions: Stellaria media, post-emergence
Procedure, shortened: (§1)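 Whole-plant greenhouse test with surfactant-containing solvent formulation, applied preemergence to sown loam–sand pots or postemergence to 2–18 cm plants. Scored by eye 13 to 15 days on, 0–100 scale.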

giant foxtail [1] = test: Test A postemergence; assay type: in vivo, Setaria faberii; conditions: 0 to 100 scale where 0 is no effect and 100 is complete control
Procedure, shortened: (§2)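 Injury scores run from 0, no effect, to 100, complete control, judged by eye against untreated plants roughly 10 days after treatment. Chemicals carried a surfactant in a non-phytotoxic solvent and went onto loam–sand soil preemergence or onto one- to two-leaf seedlings postemergence.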

pigweed = test: Test A postemergence; assay type: in vivo, Amaranthus retroflexus; conditions: 0 to 100 scale where 0 is no effect and 100 is complete control
Procedure, shortened: as §2

giant foxtail [2] = test: Test A preemergence; assay type: in vivo, Setaria faberii; conditions: 0 to 100 scale where 0 is no effect and 100 is complete control
Procedure, shortened: as §2

lambsquarters = test: Test C postemergence; assay type: in vivo, Chenopodium album; conditions: Chenopodium album, post-emergence
Procedure, shortened: as §1

sedge, umbrella = test: Test B flooded paddy test; assay type: in vivo, Cyperus difformis; conditions: Flood, 250 g ai/ha; 0 to 100 scale where 0 is no effect and 100 is complete control
Procedure, shortened: (§3)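 Flooded to 3 cm at the 2-leaf stage, pots received compound through the paddy water and were kept at that depth under greenhouse conditions. After 13–15 days, effect was rated by eye relative to controls, 0 = none and 100 = complete control.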

rice = test: Test B flooded paddy test; assay type: in vivo, Oryza sativa; conditions: Oryza sativa; Flood, 250 g ai/ha; 0 to 100 scale where 0 is no effect and 100 is complete control; read-out: Plant response rating, Rice
Procedure, shortened: as §3

oilseed rape = test: Test C postemergence; assay type: in vivo, Brassica napus; conditions: Brassica napus, post-emergence
Procedure, shortened: as §1

barnyardgrass = test: Test B flooded paddy test; assay type: in vivo, Echinochloa crus-galli; conditions: Echinochloa crus-galli; Flood, 250 g ai/ha; 0 to 100 scale where 0 is no effect and 100 is complete control; read-out: Plant response rating, Barnyardgrass
Procedure, shortened: as §3

galium = test: Test C postemergence; assay type: in vivo, Galium aparine; conditions: Galium, post-emergence
Procedure, shortened: as §1

Italian ryegrass = test: Test C postemergence; assay type: in vivo, Lolium multiflorum; conditions: Lolium multiflorum, post-emergence
Procedure, shortened: as §1

soybean = test: Test C postemergence; assay type: in vivo, Glycine max; conditions: Glycine max, post-emergence
Procedure, shortened: as §1

waterhemp = test: Test C postemergence; assay type: in vivo, Amaranthus rudis; conditions: Amaranthus tuberculatus, post-emergence
Procedure, shortened: as §1

N#Cc1cccc(Oc2ncc(Cl)cn2)c1-n1cc(SC(F)(F)F)cn1 [Compound 134, 3-[(5-chloro-2-pyrimidinyl)oxy]-2-[4-(trifluoromethylthio)-1-pyrazolyl]benzonitrile]
pest or weed control at 16 g/ha (chickweed; 16 g ai/ha, postemergence, 0 is no effect, 100 is complete control, read-out: Plant response rating (0 to 100), Chickweed): 45% | pest or weed control at 125 g/ha (chickweed; 125 g ai/ha, postemergence, visual rating, scale 0 to 100 (0 no effect, 100 complete control), read-out: Plant response rating, Chickweed): 80% | pest or weed control at 62 g/ha (chickweed; Postemergence, 62 g ai/ha, scale 0 to 100 (0 no effect, 100 complete control), read-out: Plant response rating, Chickweed): 55% | Foxtail, Giant plant response rating (giant foxtail [1]; 125 g ai/ha): 70 | Plant response rating, Foxtail, Giant (giant foxtail [1]; 500 g ai/ha): 100 | Pigweed plant response rating (pigweed; 125 g ai/ha): 100 | Plant response rating, Pigweed (pigweed; 500 g ai/ha): 100 | Foxtail, Giant plant response rating (giant foxtail [2]; 500 g ai/ha): 100 | pest or weed control at 125 g/ha (giant foxtail [2]; Setaria faberi, pre-emergence, 240 h, 125 g ai/ha, read-out: Plant response rating, Foxtail, Giant): 100% | pest or weed control at 16 g/ha (lambsquarters; 16 g ai/ha, postemergence, 0 is no effect, 100 is complete control, read-out: Plant response rating (0 to 100), Lambsquarters): 5% | pest or weed control at 125 g/ha (lambsquarters; 125 g ai/ha, postemergence, visual rating, scale 0 to 100 (0 no effect, 100 complete control), read-out: Plant response rating, Lambsquarters): 65% | pest or weed control at 62 g/ha (lambsquarters; Postemergence, 62 g ai/ha, scale 0 to 100 (0 no effect, 100 complete control), read-out: Plant response rating, Lambsquarters): 75% | Plant response rating, Sedge, Umbrella (sedge, umbrella): 30 | plant injury at 250 g/ha (rice): 0% | plant injury at 16 g/ha (oilseed rape; 16 g ai/ha, postemergence, 0 is no effect, 100 is complete control, read-out: Plant response rating (0 to 100), Oilseed Rape): 5% | plant injury at 125 g/ha (oilseed rape; 125 g ai/ha, postemergence, visual rating, scale 0 to 100 (0 no effect, 100 complete control), read-out: Plant response rating, Oilseed Rape): 60% | plant injury at 62 g/ha (oilseed rape; Postemergence, 62 g ai/ha, scale 0 to 100 (0 no effect, 100 complete control), read-out: Plant response rating, Oilseed Rape): 70% | pest or weed control at 250 g/ha (barnyardgrass): 0% | pest or weed control at 16 g/ha (galium; 16 g ai/ha, postemergence, 0 is no effect, 100 is complete control, read-out: Plant response rating (0 to 100), Galium): 65% | pest or weed control at 125 g/ha (galium; 125 g ai/ha, postemergence, visual rating, scale 0 to 100 (0 no effect, 100 complete control), read-out: Plant response rating, Galium): 85% | pest or weed control at 62 g/ha (galium; Postemergence, 62 g ai/ha, scale 0 to 100 (0 no effect, 100 complete control), read-out: Plant response rating, Galium): 85% | pest or weed control at 16 g/ha (Italian ryegrass; 16 g ai/ha, postemergence, 0 is no effect, 100 is complete control, read-out: Plant response rating (0 to 100), Ryegrass, Italian): 10% | pest or weed control at 125 g/ha (Italian ryegrass; 125 g ai/ha, postemergence, visual rating, scale 0 to 100 (0 no effect, 100 complete control), read-out: Plant response rating, Ryegrass, Italian): 0% | pest or weed control at 62 g/ha (Italian ryegrass; Postemergence, 62 g ai/ha, scale 0 to 100 (0 no effect, 100 complete control), read-out: Plant response rating, Ryegrass, Italian): 5% | Soybean plant response rating (crop injury, 0-100 scale) at 16 g/ha (soybean; 16 g ai/ha, postemergence, 0 is no effect, 100 is complete control): 60% | Soybean plant response rating (crop injury, 0-100 scale) at 125 g/ha (soybean; 125 g ai/ha, postemergence, visual rating, scale 0 to 100 (0 no effect, 100 complete control), read-out: Plant response rating, Soybean): 90% | Soybean plant response rating (crop injury, 0-100 scale) at 62 g/ha (soybean; Postemergence, 62 g ai/ha, scale 0 to 100 (0 no effect, 100 complete control)): 65% | pest or weed control at 16 g/ha (waterhemp; 16 g ai/ha, postemergence, 0 is no effect, 100 is complete control, read-out: Plant response rating (0 to 100), Waterhemp): 55% | pest or weed control at 125 g/ha (waterhemp; 125 g ai/ha, postemergence, visual rating, scale 0 to 100 (0 no effect, 100 complete control), read-out: Plant response rating, Waterhemp): 85% | pest or weed control at 62 g/ha (waterhemp; Postemergence, 62 g ai/ha, scale 0 to 100 (0 no effect, 100 complete control), read-out: Plant response rating, Waterhemp): 60%
